Measurements published in ChEMBL document CHEMBL3046877, “Synthesis and bioevaluation of novel arylnaphthalene lignans as anticancer agents” (Med Chem Res, 2013).
Activity calls are given as the source filed them. The rule behind the calls is not given here.

How the values were obtained:
[1] = test system: HEK293; assay: Cytotoxicity against Homo sapiens (human) HEK293 cells assessed as decrease in cell growth after 3 days by MTT assay; format: cell-based; conditions: HEK293, 72 h
[2] = test system: KB; assay: Anticancer activity against Homo sapiens (human) KB cells assessed as decrease in cell growth after 3 days by MTT assay; format: functional, cell-based; conditions: 72 h
[3] = test system: HCT-116; assay: Anticancer activity against Homo sapiens (human) HCT116 cells assessed as decrease in cell growth after 3 days by MTT assay; format: functional, cell-based; conditions: HCT-116, 72 h
[4] = test system: A549; assay: Anticancer activity against Homo sapiens (human) A549 cells assessed as decrease in cell growth after 3 days by MTT assay; format: functional, cell-based; conditions: A549, 72 h
[5] = test system: SW480; assay: Anticancer activity against Homo sapiens (human) SW480 cells assessed as decrease in cell growth after 3 days by MTT assay; format: functional, cell-based; conditions: SW480, 72 h
[6] = test system: KB; assay: Induction of apoptosis in Homo sapiens (human) KB cells assessed as increase in Bax expression at 5 to 15 uM after 72 hr by western blot analysis; format: functional, cell-based
[7] = test system: KB; assay: Induction of apoptosis in Homo sapiens (human) KB cells assessed as plasma membrane blebbing at 5 to 10 uM after 72 hr by AO/EB double staining based fluorescence microscopic analysis; format: functional, cell-based
[8] = test system: KB; assay: Induction of apoptosis in Homo sapiens (human) KB cells assessed as decrease in Bcl-2 expression at 5 to 15 uM after 72 hr by western blot analysis; format: functional, cell-based

Row | SMILES | IC50 [1] [µM] | IC50 [2] [µM] | IC50 [3] [µM] | IC50 [4] [µM] | IC50 [5] [µM] | Activity [6] | Activity [7] | inhibition [8]
1 | COc1cc2c(O)c3c(c(-c4ccccc4)c2cc1OC)C(=O)OC3 | > 100 | > 100 | > 100 | > 100 | > 100 |  |  | 
2 | COc1cc2c(O)c3c(c(-c4ccccc4OC)c2cc1OC)C(=O)OC3 | > 100 | > 100 | > 100 | > 100 | 22.8 |  |  | 
3 | COc1ccc(-c2c3c(c(O)c4cc(OC)c(OC)cc24)COC3=O)cc1OC | > 100 | > 100 | > 100 | > 100 | > 100 |  |  | 
4 | COc1cc([C@@H]2c3cc4c(cc3[C@@H](O[C@@H]3O[C@@H]5CO[C@@H](C)O[C@H]5[C@H](O)[C@H]3O)[C@H]3COC(=O)[C@H]23)OCO4)cc(OC)c1O [ETOPOSIDE] | > 100 |  |  |  |  |  |  | 
5 | COc1cc(OC)cc(-c2c3c(c(O)c4cc(OC)c(OC)cc24)COC3=O)c1 | > 100 | 5.1 | 29.3 | > 100 | 5.6 | Active | Active | Active
6 | COc1ccc(-c2c3c(c(O)c4cc(OC)c(OC)cc24)COC3=O)cc1 | > 100 | 20.6 | > 100 | > 100 | > 100 |  |  | 
7 | COc1cc2c(O)c3c(c(-c4ccc5c(c4)OCO5)c2cc1OC)C(=O)OC3 [DIPHYLLIN] | > 100 |  | 48.5 |  |  |  |  | 
8 | COc1cc2c(O)c3c(c(-c4ccc(C)cc4)c2cc1OC)C(=O)OC3 | > 100 | 15.1 | > 100 | > 100 | > 100 |  |  | 
9 | COc1cccc(-c2c3c(c(O)c4cc(OC)c(OC)cc24)COC3=O)c1 | > 100 | > 100 | 88.5 | > 100 | > 100 |  |  | 
10 | COc1cc2c(O)c3c(c(-c4cc(OC)c(OC)c(OC)c4)c2cc1OC)C(=O)OC3 | > 100 | 23.2 | > 100 | 97.2 | > 100 |  |  | 
11 | COc1ccc(OC)c(-c2c3c(c(O)c4cc(OC)c(OC)cc24)COC3=O)c1 | > 100 | > 100 | > 100 | > 100 | > 100 |  |  | 
